Measured values reported in patent US20130102619A1, “2-PYRIDYLOXY-4-NITRILE OREXIN RECEPTOR ANTAGONISTS” (priority 2011, published 2013).

Legend:
OX1 receptor (hOX1) = OX1 receptor (hOX1) (Homo sapiens, UniProt O43613); experiment: radioligand binding assay, orexin-1 receptor (membranes from CHO cells); details: CHO cell membranes, read-out: hOX1 hKi
Experimental: In a typical experiment the OX1 and OX2 receptor antagonistic activity of the compounds of the present invention was determined in accordance with the following experimental method. For intracellular calcium measurements, Chinese hamster ovary (CHO) cells expressing the rat orexin-1 receptor or the human orexin-2 receptor, are grown in Iscove's modified DMEM containing 2 mM L-glutamine, […], 1% hypoxanthine-thymidine supplement, 100 U/ml penicillin, 100 ug/ml streptomycin and 10% heat-inactivated fetal calf serum (FCS). The cells are seeded at 20,000 cells/well into Becton-Dickinson black 384-well clear bottom sterile plates coated with poly-D-lysine. All reagents were from GIBCO-Invitrogen Corp. The seeded plates are incubated overnight at 37° C. and 5% CO2. Ala-6,12 human orexin-A as the agonist is prepared as a 1 mM stock solution in 1% bovine serum albumin (BSA) and diluted in assay buffer (HBSS containing 20 mM HEPES, 0.1% BSA and 2.5 mM probenecid, pH7.4) for use in the assay at a final concentration of 70 pM. Test compounds are prepared as 10 mM stock solution in DMSO, then diluted in 384-well plates, first in DMSO, then assay buffer. On the day of the assay, cells are washed 3 times with 100 ul assay buffer and then incubated for 60 min (37° C., 5% CO2) in 60 ul assay buffer containing 1 uM Fluo-4AM ester, 0.02% pluronic acid, and 1% BSA. The dye loading solution is then aspirated and cells are washed 3 times with 100 ul assay buffer. 30 ul of that same buffer is left in each well. Within the Fluorescent Imaging Plate Reader (FLIPR, Molecular Devices), test compounds are added to the plate in a volume of 25 ul, incubated for 5 min and finally 25 ul of agonist is added. Fluorescence is measured for each well at 1 second intervals for 5 minutes and the height of each fluorescence peak is compared to the height of the fluorescence peak induced by 70 pM Ala-6,12 orexin-A with buffer in place of antagonist. […] Alternatively, compound potency can be assessed by a radioligand binding assay (described in Bergman et. al. Bioorg. Med. Chem. Lett. 2008, 18, 1425-1430) in which the inhibition constant (Ki) is determined in membranes prepared from CHO cells expressing either the OX1 or OX2 receptor. The intrinsic orexin receptor antagonist activity of a compound which may be used in the present invention may be determined by these assays.

rat orexin-1 receptor = rat orexin-1 receptor (Rattus norvegicus (Rat), UniProt P56718); experiment: FLIPR Ca2+ Flux Assay, CHO cells expressing rat orexin-1 receptor; type: cell-based; details: 70 pM Ala-6,12 orexin-A agonist, read-out: hOX1R FLIPR IC50;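 note: concentration giving 50% inhibition of the agonist-induced calcium response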
Experimental: (§1) The utility of the compounds in accordance with the present invention as orexin receptor OX1R and/or OX2R antagonists may be readily determined without undue experimentation by methodology well known in the art, including the “FLIPR Ca^2+ Flux Assay” (Okumura et al., Biochem. Biophys. Res. Comm. 280:976-981, 2001). In a typical experiment the OX1 and OX2 receptor antagonistic activity of the compounds of the present invention was determined in accordance with the following experimental method. For intracellular calcium measurements, Chinese hamster ovary (CHO) cells expressing the rat orexin-1 receptor or the human orexin-2 receptor, are grown in Iscove's modified DMEM containing 2 mM L-glutamine, […], 1% hypoxanthine-thymidine supplement, 100 U/ml penicillin, 100 ug/ml streptomycin and 10% heat-inactivated fetal calf serum (FCS). The cells are seeded at 20,000 cells/well into Becton-Dickinson black 384-well clear bottom sterile plates coated with poly-D-lysine. All reagents were from GIBCO-Invitrogen Corp. The seeded plates are incubated overnight at 37° C. and 5% CO2. Ala-6,12 human orexin-A as the agonist is prepared as a 1 mM stock solution in 1% bovine serum albumin (BSA) and diluted in assay buffer (HBSS containing 20 mM HEPES, 0.1% BSA and 2.5 mM probenecid, pH7.4) for use in the assay at a final concentration of 70 pM. Test compounds are prepared as 10 mM stock solution in DMSO, then diluted in 384-well plates, first in DMSO, then assay buffer. On the day of the assay, cells are washed 3 times with 100 ul assay buffer and then incubated for 60 min (37° C., 5% CO2) in 60 ul assay buffer containing 1 uM Fluo-4AM ester, 0.02% pluronic acid, and 1% BSA. The dye loading solution is then aspirated and cells are washed 3 times with 100 ul assay buffer. 30 ul of that same buffer is left in each well. Within the Fluorescent Imaging Plate Reader (FLIPR, Molecular Devices), test compounds are added to the plate in a volume of 25 ul, incubated for 5 min and finally 25 ul of agonist is added. Fluorescence is measured for each well at 1 second intervals for 5 minutes and the height of each fluorescence peak is compared to the height of the fluorescence peak induced by 70 pM Ala-6,12 orexin-A with buffer in place of antagonist. […] Alternatively, compound potency can be assessed by a radioligand binding assay (described in Bergman et. al. Bioorg. Med. Chem. Lett. 2008, 18, 1425-1430) in which the inhibition constant (Ki) is determined in membranes prepared from CHO cells expressing either the OX1 or OX2 receptor. The intrinsic orexin receptor antagonist activity of a compound which may be used in the present invention may be determined by these assays.

human orexin-2 receptor [1] = biological target: T1, human orexin-2 receptor (Homo sapiens (Human), UniProt O43614); experiment: radioligand binding assay, orexin-2 receptor (membranes from CHO cells); details: CHO cell membranes, read-out: hOX2 hKi
Experimental: as §1

human orexin-2 receptor [2] = biological target: T1, human orexin-2 receptor; experiment: FLIPR Ca2+ Flux Assay, CHO cells expressing human orexin-2 receptor; type: cell-based; details: 70 pM Ala-6,12 orexin-A agonist, read-out: hOX2R FLIPR IC50
Experimental: as §1

T1 sequence (O43614 whole entry): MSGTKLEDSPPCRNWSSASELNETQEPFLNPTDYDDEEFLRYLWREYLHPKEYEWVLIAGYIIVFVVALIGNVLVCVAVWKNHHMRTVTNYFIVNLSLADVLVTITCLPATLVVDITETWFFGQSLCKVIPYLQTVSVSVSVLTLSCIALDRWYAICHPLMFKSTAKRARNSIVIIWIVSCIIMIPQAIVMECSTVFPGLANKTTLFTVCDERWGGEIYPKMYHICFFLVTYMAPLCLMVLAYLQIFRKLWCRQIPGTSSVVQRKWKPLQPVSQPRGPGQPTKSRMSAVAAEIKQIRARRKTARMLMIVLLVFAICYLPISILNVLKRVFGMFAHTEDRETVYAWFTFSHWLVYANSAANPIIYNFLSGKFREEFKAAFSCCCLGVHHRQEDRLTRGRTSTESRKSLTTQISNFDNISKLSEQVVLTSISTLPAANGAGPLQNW
Chain of rat orexin-1 receptor (P56718 whole entry): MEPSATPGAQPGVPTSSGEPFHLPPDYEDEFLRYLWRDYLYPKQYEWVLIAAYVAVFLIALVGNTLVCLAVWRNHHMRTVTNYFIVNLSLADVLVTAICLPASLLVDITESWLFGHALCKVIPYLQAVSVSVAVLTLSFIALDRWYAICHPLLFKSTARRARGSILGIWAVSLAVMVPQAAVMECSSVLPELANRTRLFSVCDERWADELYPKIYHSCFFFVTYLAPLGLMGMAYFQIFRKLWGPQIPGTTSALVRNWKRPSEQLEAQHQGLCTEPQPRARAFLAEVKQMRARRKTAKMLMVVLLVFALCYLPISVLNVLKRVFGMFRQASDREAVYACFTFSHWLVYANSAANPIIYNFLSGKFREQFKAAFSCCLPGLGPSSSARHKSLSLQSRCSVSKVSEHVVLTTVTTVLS

SMILES	Ki (OX1 receptor (hOX1)) [nM]	Ki (human orexin-2 receptor [1]) [nM]	IC50 (rat orexin-1 receptor) [nM]	IC50 (human orexin-2 receptor [2]) [nM]
Cc1cccc(-n2nccn2)c1C(=O)N1C[C@H](Oc2cc(C#N)ccn2)CC[C@H]1C [Example 4, 2-{[(3R,6R)-6-methyl-1-{[2-methyl-6-(2H-1,2,3-triazol-2-yl)phenyl]carbonyl}piperidin-3-yl]oxy}pyridine-4-carbonitrile]	932	2.3	> 10000	29
Cc1cccc(C(=O)N2C[C@H](Oc3cc(C#N)ccn3)CC[C@H]2C)c1-n1nccn1 [Example 5, 2-{[(3R,6R)-6-methyl-1-{[3-methyl-2-(2H-1,2,3-triazol-2-yl)phenyl]carbonyl}piperidin-3-yl]oxy}pyridine-4-carbonitrile]	669	3	2330	17
C[C@@H]1CC[C@@H](Oc2cc(C#N)ccn2)CN1C(=O)c1cccc(F)c1-n1nccn1 [Example 6, 2-{[(3R,6R)-1-{[3-fluoro-2-(2H-1,2,3-triazol-2-yl)phenyl]carbonyl}-6-methylpiperidin-3-yl]oxy}pyridine-4-carbonitrile]	1900	5.5	> 10000	18
C[C@@H]1CC[C@@H](Oc2cc(C#N)ccn2)CN1C(=O)c1ccc(Cl)cc1-n1nccn1 [Example 7, 2-{[(3R,6R)-1-{[4-chloro-2-(2H-1,2,3-triazol-2-yl)phenyl]carbonyl}-6-methylpiperidin-3-yl]oxy}pyridine-4-carbonitrile]	997	1.1	3840	17
C[C@@H]1CC[C@@H](Oc2cc(C#N)ccn2)CN1C(=O)c1nscc1-n1nccn1 [Example 11, 2-{[(3R,6R)-6-methyl-1-{[4-(2H-1,2,3-triazol-2-yl)isothiazol-3-yl]carbonyl}piperidin-3-yl]oxy}pyridine-4-carbonitrile]	13000	94		
C[C@@H]1CC[C@@H](Oc2cc(C#N)ccn2)CN1C(=O)c1cn(C)nc1-n1nccn1 [Example 12, 2-{[(3R,6R)-6-methyl-1-{[1-methyl-3-(2H-1,2,3-triazol-2-yl)-1H-pyrazol-4-yl]carbonyl}piperidin-3-yl]oxy}pyridine-4-carbonitrile]	5640	151		
Cc1nsc(-n2nccn2)c1C(=O)N1C[C@H](Oc2cc(C#N)ccn2)CC[C@H]1C [Example 13, 2-{[(3R,6R)-6-methyl-1-{[3-methyl-5-(2H-1,2,3-triazol-2-yl)isothiazol-4-yl]carbonyl}piperidin-3-yl]oxy}pyridin-4-carbonitrile]	34500	137		
C[C@@H]1CC[C@@H](Oc2cc(C#N)ccn2)CN1C(=O)c1cc(Cl)ccc1-n1nccn1 [Example 16, 2-{[(3R,6R)-1-{[5-chloro-2-(2H-1,2,3-triazol-2-yl)phenyl]carbonyl}-6-methylpiperidin-3-yl]oxy}pyridine-4-carbonitrile]	5640	57		
CCOc1ccc(C(=O)N2C[C@H](Oc3cc(C#N)ccn3)CC[C@H]2C)c(-n2nccn2)c1 [Example 21, 2-{[(3R,6R)-1-{[4-ethoxy-2-(2H-1,2,3-triazol-2-yl)phenyl]carbonyl}-6-methylpiperidin-3-yl]oxy}pyridine-4-carbonitrile]	23200	3920		
C[C@@H]1CC[C@@H](Oc2cc(C#N)ccn2)CN1C(=O)c1ccccc1-n1ncnn1 [Example 30, 2-{[(3R,6R)-6-methyl-1-{[2-(2H-tetrazol-2-yl)phenyl]carbonyl}piperidin-3-yl]oxy}pyridine-4-carbonitrile]			< 10000	110
C[C@@H]1CC[C@@H](Oc2cc(C#N)ccn2)CN1C(=O)c1ccsc1-c1ncccn1 [Example 32, 2-({(3R,6R)-6-methyl-1-[(2-pyrimidin-2-ylthiophen-3-yl)carbonyl]piperidin-3-yl}oxy)pyridine-4-carbonitrile]		2.1	6740	44

Second part, led by results:

Ki (OX1 receptor (hOX1)) [nM]	Ki (human orexin-2 receptor [1]) [nM]	SMILES	IC50 (rat orexin-1 receptor) [nM]	IC50 (human orexin-2 receptor [2]) [nM]
1290	134	C[C@@H]1CC[C@@H](Oc2cc(C#N)ccn2)CN1C(=O)c1cc(C(N)=O)ccc1-n1nccn1 [Example 18, 3-({(2R,5R)-5-[(4-cyanopyridin-2-yl)oxy]-2-methylpiperidin-1-yl}carbonyl)-4-(2H-1,2,3-triazol-2-yl)benzamide]		
7840	35	C[C@@H]1CC[C@@H](Oc2cc(C#N)ccn2)CN1C(=O)c1ccc(OCF)cc1-n1nccn1 [Example 23, 2-{[(3R,6R)-1-{[4-(fluoromethoxy)-2-(2H-1,2,3-triazol-2-yl)phenyl]carbonyl}-6-methylpiperidin-3-yl]oxy}pyridine-4-carbonitrile]		
23900	79	C[C@@H]1CC[C@@H](Oc2cc(C#N)ccn2)CN1C(=O)c1ccc(OC(F)F)cc1-n1nccn1 [Example 24, 2-{[(3R,6R)-1-{[4-(difluoromethoxy)-2-(2H-1,2,3-triazol-2-yl)phenyl]carbonyl}-6-methylpiperidin-3-yl]oxy}pyridine-4-carbonitrile]		
9440	10900	C[C@@H]1CC[C@@H](Oc2cc(C#N)ccn2)CN1C(=O)c1ccc(OCCO)cc1-n1nccn1 [Example 25, 2-{[(3R,6R)-1-{[4-(2-hydroxyethoxy)-2-(2H-1,2,3-triazol-2-yl)phenyl]carbonyl}-6-methylpiperidin-3-yl]oxy}pyridine-4-carbonitrile]		
9440	162	Cc1ccc(C(=O)N2C[C@H](Oc3cc(C#N)ccn3)CC[C@H]2C)c(-n2nccn2)n1 [Example 26, 2-{[(3R,6R)-6-methyl-1-{[6-methyl-2-(2H-1,2,3-triazol-2-yl)pyridin-3-yl]carbonyl}piperidin-3-yl]oxy}pyidine-4-carbonitrile]		
9440	1040	C[C@@H]1CC[C@@H](Oc2cc(C#N)ccn2)CN1C(=O)c1ccc(C(F)(F)F)nc1-n1nccn1 [Example 27, 2-{[(3R,6R)-6-methyl-1-{[2-(2H-1,2,3-triazol-2-yl)-6-(trifluoromethyl)pyridin-3-yl]carbonyl}piperidin-3-yl]oxy}pyridine-4-carbonitrile]		
2820	618	COc1ccc(C(=O)N2C[C@H](Oc3cc(C#N)ccn3)CC[C@H]2C)c(Cl)n1 [Example 28, 2-({(3R,6R)-1-[(2-chloro-6-methoxypyridin-3-yl)carbonyl]-6-methylpiperidin-3-yl}oxy)pyridine-4-carbonitrile]		
